pIC50: −log10 of the molar value.
Tested on: 596521-263-R-J1-PDC complex spheroid growth
Assay: Anticancer human tumor 596521-263-R-J1-PDC patient-derived soft tissue sarcoma cell line growth inhibition [Asc]
Settings: for viability, T/C: stronger effect = lower value
Outline: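 Complex spheroids combining tumor cells with HUVEC endothelial cells and human MSCs, at 37 degrees C, 5% CO2; agents tested alone or combined, half-log dilutions from at or near clinical Cmax, or 10 microM if Cmax unknown.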

[1] = curve of first compound, second compound 0.00316 µM
[2] = curve of first compound, second compound 0.01 µM
[3] = curve of first compound, second compound 0.0316 µM
[4] = curve of first compound, second compound 0.1 µM
[5] = curve of first compound, second compound 0.316 µM
[6] = curve of first compound, second compound 1 µM
[7] = second compound 0.00316 µM, first compound 0.00316 µM
[8] = second compound 0.00316 µM, first compound 0.01 µM
[9] = second compound 0.00316 µM, first compound 0.0316 µM
[10] = second compound 0.00316 µM, first compound 0.1 µM
[11] = second compound 0.01 µM, first compound 0.00316 µM
[12] = second compound 0.01 µM, first compound 0.01 µM
[13] = second compound 0.01 µM, first compound 0.0316 µM
[14] = second compound 0.01 µM, first compound 0.1 µM
[15] = second compound 0.0316 µM, first compound 0.00316 µM
[16] = second compound 0.0316 µM, first compound 0.01 µM
[17] = second compound 0.0316 µM, first compound 0.0316 µM
[18] = second compound 0.0316 µM, first compound 0.1 µM
[19] = second compound 0.1 µM, first compound 0.00316 µM
[20] = second compound 0.1 µM, first compound 0.01 µM
[21] = second compound 0.1 µM, first compound 0.0316 µM
[22] = second compound 0.1 µM, first compound 0.1 µM
[23] = second compound 0.316 µM, first compound 0.00316 µM
[24] = second compound 0.316 µM, first compound 0.01 µM
[25] = second compound 0.316 µM, first compound 0.0316 µM
[26] = second compound 0.316 µM, first compound 0.1 µM
[27] = second compound 1 µM, first compound 0.00316 µM
[28] = second compound 1 µM, first compound 0.01 µM
[29] = second compound 1 µM, first compound 0.0316 µM
[30] = second compound 1 µM, first compound 0.1 µM
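Also: spheroids exposed to compounds for 7 days.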

For `NC(=O)C(=Cn1cnc(-c2cc(C(F)(F)F)cc(C(F)(F)F)c2)n1)c1cncnc1` + CCN1C(C(=O)NC23CCC(C(=O)O)(CC2)CC3)C(c2cccc(Cl)c2F)C2(C(=O)Nc3cc(Cl)ccc32)C12CCCCC2, the pIC50 (curve of first compound, second compound 0.00949 µM) was 7.48, the pIC50 (curve of first compound, second compound 0.03 µM) was 7.47 and the pIC50 (curve of first compound, second compound 0.0949 µM) was 7.43. It also gave a pIC50 (curve of first compound, second compound 0.3 µM) of 7.53, a pIC50 (curve of first compound, second compound 0.949 µM) of 7.45 and a pIC50 (curve of first compound, second compound 3 µM) of 7.55. It also gave a viability, T/C (second compound 0.00949 µM, first compound 0.000949 µM) of 92%, a viability, T/C (second compound 0.00949 µM, first compound 0.003 µM) of 97.2% and a viability, T/C (second compound 0.00949 µM, first compound 0.00949 µM) of 68.5%. The viability, T/C (second compound 0.00949 µM, first compound 0.03 µM) was 61.4%, the viability, T/C (second compound 0.00949 µM, first compound 0.0949 µM) was 15.4% and the viability, T/C (second compound 0.00949 µM, first compound 0.3 µM) was 10.3%. For the same compound, the viability, T/C (second compound 0.03 µM, first compound 0.000949 µM) was 102%, the viability, T/C (second compound 0.03 µM, first compound 0.003 µM) was 96.3% and the viability, T/C (second compound 0.03 µM, first compound 0.00949 µM) was 78.8%. It also gave a viability, T/C (second compound 0.03 µM, first compound 0.03 µM) of 56.8%, a viability, T/C (second compound 0.03 µM, first compound 0.0949 µM) of 20.4% and a viability, T/C (second compound 0.03 µM, first compound 0.3 µM) of 11.5%. The viability, T/C (second compound 0.0949 µM, first compound 0.000949 µM) was 112%, the viability, T/C (second compound 0.0949 µM, first compound 0.003 µM) was 108% and the viability, T/C (second compound 0.0949 µM, first compound 0.00949 µM) was 87.8%. It also gave a viability, T/C (second compound 0.0949 µM, first compound 0.03 µM) of 61.4%, a viability, T/C (second compound 0.0949 µM, first compound 0.0949 µM) of 17.1% and a viability, T/C (second compound 0.0949 µM, first compound 0.3 µM) of 10.3%. For the same compound, the viability, T/C (second compound 0.3 µM, first compound 0.000949 µM) was 127%, the viability, T/C (second compound 0.3 µM, first compound 0.003 µM) was 91.7% and the viability, T/C (second compound 0.3 µM, first compound 0.00949 µM) was 77.3%. For the same compound, the viability, T/C (second compound 0.3 µM, first compound 0.03 µM) was 56.6%, the viability, T/C (second compound 0.3 µM, first compound 0.0949 µM) was 18% and the viability, T/C (second compound 0.3 µM, first compound 0.3 µM) was 8.14%. For the same compound, the viability, T/C (second compound 0.949 µM, first compound 0.000949 µM) was 104%, the viability, T/C (second compound 0.949 µM, first compound 0.003 µM) was 102% and the viability, T/C (second compound 0.949 µM, first compound 0.00949 µM) was 79.6%. It also gave a viability, T/C (second compound 0.949 µM, first compound 0.03 µM) of 61%, a viability, T/C (second compound 0.949 µM, first compound 0.0949 µM) of 16.3% and a viability, T/C (second compound 0.949 µM, first compound 0.3 µM) of 11.4%. For the same compound, the viability, T/C (second compound 3 µM, first compound 0.000949 µM) was 88.2%, the viability, T/C (second compound 3 µM, first compound 0.003 µM) was 88.3% and the viability, T/C (second compound 3 µM, first compound 0.00949 µM) was 74.3%. For the same compound, the viability, T/C (second compound 3 µM, first compound 0.03 µM) was 48.4%, the viability, T/C (second compound 3 µM, first compound 0.0949 µM) was 22% and the viability, T/C (second compound 3 µM, first compound 0.3 µM) was 9.41%.

For `Cc1c(S(C)(=O)=O)c(-c2cc(F)cc(N3CCN(c4ccc(NS(=O)(=O)c5ccc(NC(CCN6CCC(C(=O)OCCCP(=O)(O)O)CC6)CSc6ccccc6)c(S(=O)(=O)C(F)(F)F)c5)cc4)CC3)c2)c(-c2ccc(Cl)cc2)n1C(C)C` (stereo not drawn), the viability, T/C (compound 0.0316 µM) was 101% [middle of 7 runs], the viability, T/C (compound 0.1 µM) was 93.1% [middle of 7 runs] and the viability, T/C (compound 0.316 µM) was 91.5% [middle of 7 runs]. For the same compound, the viability, T/C (compound 1 µM) was 77.7% [middle of 7 runs], the viability, T/C (compound 3.16 µM) was 63% [middle of 7 runs] and the viability, T/C (compound 10 µM) was 55.6% [middle of 7 runs]. The pIC50 (compound alone, run of 11/07/2022) was < 5.00.

For `Cn1ncnc1[C@H]1c2n[nH]c(=O)c3cc(F)cc(c23)N[C@@H]1c1ccc(F)cc1` + CNC(C)C(=O)NC1CN(S(=O)(=O)c2cccc(S(=O)(=O)N3CCC4CCC(C(=O)NC(c5ccccc5)c5ccccc5)N4C(=O)C(NC(=O)C(C)NC)C3)c2)CCC2CCC(C(=O)NC(c3ccccc3)c3ccccc3)N2C1=O, the pIC50 [1] was > 9.50, the pIC50 [2] was < 7.00 and the pIC50 [3] was < 7.00. For the same compound, the pIC50 [4] was < 7.00, the pIC50 [5] was < 7.00 and the pIC50 [6] was < 7.00. The viability, T/C (second compound 0.00316 µM, first compound 0.000316 µM) was 16.1%, the viability, T/C (second compound 0.00316 µM, first compound 0.001 µM) was 16% and the viability, T/C [7] was 15.3%. It also gave a viability, T/C [8] of 16.5%, a viability, T/C [9] of 15.2% and a viability, T/C [10] of 15.6%. The viability, T/C (second compound 0.01 µM, first compound 0.000316 µM) was 76%, the viability, T/C (second compound 0.01 µM, first compound 0.001 µM) was 62.1% and the viability, T/C [11] was 63.8%. It also gave a viability, T/C [12] of 64.2%, a viability, T/C [13] of 67.4% and a viability, T/C [14] of 57.3%. It also gave a viability, T/C (second compound 0.0316 µM, first compound 0.000316 µM) of 92.6%, a viability, T/C (second compound 0.0316 µM, first compound 0.001 µM) of 75.9% and a viability, T/C [15] of 73%. The viability, T/C [16] was 76.9%, the viability, T/C [17] was 64.1% and the viability, T/C [18] was 64.7%. For the same compound, the viability, T/C (second compound 0.1 µM, first compound 0.000316 µM) was 81.9%, the viability, T/C (second compound 0.1 µM, first compound 0.001 µM) was 81% and the viability, T/C [19] was 79.9%. It also gave a viability, T/C [20] of 71.1%, a viability, T/C [21] of 62.2% and a viability, T/C [22] of 60.3%. The viability, T/C (second compound 0.316 µM, first compound 0.000316 µM) was 83.3%, the viability, T/C (second compound 0.316 µM, first compound 0.001 µM) was 74.7% and the viability, T/C [23] was 79.3%. For the same compound, the viability, T/C [24] was 64%, the viability, T/C [25] was 65.1% and the viability, T/C [26] was 60.6%. For the same compound, the viability, T/C (second compound 1 µM, first compound 0.000316 µM) was 73.2%, the viability, T/C (second compound 1 µM, first compound 0.001 µM) was 76.8% and the viability, T/C [27] was 71.5%. The viability, T/C [28] was 77.3%, the viability, T/C [29] was 64.1% and the viability, T/C [30] was 58.3%.

For `CCN1CCN(Cc2ccc(Nc3ncc(F)c(-c4cc(F)c5nc(C)n(C(C)C)c5c4)n3)nc2)CC1` + CNC(C)C(=O)NC1CN(S(=O)(=O)c2cccc(S(=O)(=O)N3CCC4CCC(C(=O)NC(c5ccccc5)c5ccccc5)N4C(=O)C(NC(=O)C(C)NC)C3)c2)CCC2CCC(C(=O)NC(c3ccccc3)c3ccccc3)N2C1=O, the pIC50 [1] was < 6.00, the pIC50 [2] was < 6.00 and the pIC50 [3] was < 6.00. For the same compound, the pIC50 [4] was < 6.00, the pIC50 [5] was < 6.00 and the pIC50 [6] was < 6.00. The viability, T/C [7] was 90.8%, the viability, T/C [8] was 81.4% and the viability, T/C [9] was 77%. The viability, T/C [10] was 79.8%, the viability, T/C (second compound 0.00316 µM, first compound 0.316 µM) was 81.7% and the viability, T/C (second compound 0.00316 µM, first compound 1 µM) was 74.1%. It also gave a viability, T/C [11] of 98.6%, a viability, T/C [12] of 87.5% and a viability, T/C [13] of 81.2%. The viability, T/C [14] was 84.6%, the viability, T/C (second compound 0.01 µM, first compound 0.316 µM) was 81.6% and the viability, T/C (second compound 0.01 µM, first compound 1 µM) was 91.3%. For the same compound, the viability, T/C [15] was 79.9%, the viability, T/C [16] was 83.4% and the viability, T/C [17] was 79%. It also gave a viability, T/C [18] of 76.8%, a viability, T/C (second compound 0.0316 µM, first compound 0.316 µM) of 93.5% and a viability, T/C (second compound 0.0316 µM, first compound 1 µM) of 76%. For the same compound, the viability, T/C [19] was 73%, the viability, T/C [20] was 78.8% and the viability, T/C [21] was 76%. It also gave a viability, T/C [22] of 86%, a viability, T/C (second compound 0.1 µM, first compound 0.316 µM) of 79.7% and a viability, T/C (second compound 0.1 µM, first compound 1 µM) of 84.8%. The viability, T/C [23] was 75.4%, the viability, T/C [24] was 78.1% and the viability, T/C [25] was 74.8%. It also gave a viability, T/C [26] of 77.3%, a viability, T/C (second compound 0.316 µM, first compound 0.316 µM) of 84.7% and a viability, T/C (second compound 0.316 µM, first compound 1 µM) of 78.3%. It also gave a viability, T/C [27] of 70.4%, a viability, T/C [28] of 76% and a viability, T/C [29] of 72.3%. The viability, T/C [30] was 70.7%, the viability, T/C (second compound 1 µM, first compound 0.316 µM) was 72.7% and the viability, T/C (second compound 1 µM, first compound 1 µM) was 69.4%.
